{
  "source": "patent US20120035320A1",
  "about": "“POLYACRIDINE NUCLEIC ACID DELIVERY PEPTIDE COMPLEXES” (University of Iowa Research Foundation, priority 2010, published 2012)",
  "key": {"[1]": {"tested_on": "DNA", "assay": "DNA band shift and thiazole orange displacement assays of cysteine-flanked acridinylated peptides", "assay_type": "binding", "description": "CKacrKKacrC (SEQ ID NO: 103), CKacrRKacrC (SEQ ID NO: 104), CKacrLKacrC (SEQ ID NO: 105), and CKacrFKacrC (SEQ ID NO: 106) (where Kacr is a lysine modified with acridine at the ε-amine) (FIG. 33, Formula VII) were synthesized by SPPS and purified while monitoring the absorbance of acridine at 409 nm. Monomers were evaluated for DNA affinity by DNA band shift and thiazole orange displacement assays. DNA complexes with monomers were also evaluated for particle size and ζ-potential. […] Buffered incubations of monomer at pH 8.0 were used to encourage polymerization of peptides and poly-CKacrKKacrC (SEQ ID NO: 103) and poly-CKacrRKacrC (SEQ ID NO: 104) have been isolated."}, "[2]": {"biological_target": "human DC-SIGN (Dendritic Cell-Specific Intracellular adhesion molecule-3 Grabbing Non-integrin) receptor, stably transfected in CHO cells (human) (UniProt Q9NNX6)", "sequence (Q9NNX6 whole entry)": "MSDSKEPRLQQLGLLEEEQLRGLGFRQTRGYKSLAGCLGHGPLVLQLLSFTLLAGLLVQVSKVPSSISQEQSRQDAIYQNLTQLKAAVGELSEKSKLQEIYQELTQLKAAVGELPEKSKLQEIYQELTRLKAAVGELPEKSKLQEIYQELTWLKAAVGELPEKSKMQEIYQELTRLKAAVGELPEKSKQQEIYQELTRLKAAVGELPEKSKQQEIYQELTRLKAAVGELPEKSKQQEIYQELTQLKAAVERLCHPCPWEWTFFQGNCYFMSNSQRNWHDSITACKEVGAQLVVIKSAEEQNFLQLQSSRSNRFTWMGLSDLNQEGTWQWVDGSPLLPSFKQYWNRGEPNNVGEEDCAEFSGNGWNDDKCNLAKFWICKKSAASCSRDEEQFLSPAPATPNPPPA", "assay": "cell-based or functional assay"}, "[3]": {"biological_target": "human DC-SIGN (Dendritic Cell-Specific Intracellular adhesion molecule-3 Grabbing Non-integrin) receptor, stably transfected in CHO cells (human) (UniProt Q9NNX6)", "assay": "FACS of DC-SIGN CHO (+) and (-) cells after 24 hr at 37 C with Cy5-DNA glycopeptide polyplex"}, "[4]": {"biological_target": "human DC-SIGN (Dendritic Cell-Specific Intracellular adhesion molecule-3 Grabbing Non-integrin) receptor, stably transfected in CHO cells (human) (UniProt Q9NNX6)", "assay": "FACS of DC-SIGN CHO (+) and (-) cells after 24 hr with Cy5-DNA glycopeptide polyplex"}, "[5]": {"tested_on": "HepG2, 3T3, and CHO cells", "assay": "in vitro gene transfer (luciferase) in three cell lines", "assay_type": "cell-based", "details": "all three cell lines; 0.5 nmol per μg of pGL3", "description": "HepG2 cells (5×10^5) were plated on 6×35 mm wells and grown to approximately 50% confluency. Transfections were performed in MEM supplemented with 2% FBS, sodium pyruvate (1 mM), and penicillin and streptomycin (100 U and 100 μg/mL). Polyplexes were prepared at a DNA concentration of 30 μg/ml and a stoichiometry of 0.5 nmol peptide per μg of DNA in Hepes buffered mannitol (HBM). Polyplexes (10 μg of DNA in 0.3 ml of HBM) were added drop wise to wells in triplicate. After 24 hrs, the cells were washed twice with 2 ml of ice-cold phosphate-buffered saline (Ca^2+- and Mg^2+-free) and then treated with 0.5 ml of lysis buffer (25 mM Tris Chloride, pH 7.8, 1 mM EDTA, 8 mM magnesium chloride, and 1% Triton X-100) for 10 min at 4° C. Cell lysates were scraped, transferred to 1.5 mL microcentrifuge tubes, and centrifuged for 10 min at 13,000 g at 4° C. to pellet cell debris. Lysis buffer (300 μL), sodium-ATP (4.3 μL of a 165 mM solution at pH 7, 4° C.) were combined in a test tube, mixed briefly, and immediately placed in the luminometer. Luciferase relative light units were measured by a Lumat LB 9501 (Berthold Systems, Germany) with 10 s integration after automatic injection of 100 μL of 0.5 mM D-luciferin. […] Protein concentrations were measured by a BCA assay using bovine serum albumin as a standard. […]"}, "[6]": {"assay": "QELS particle size and zeta potential of polyacridine-melittin polyplexes", "assay_type": "physicochemical", "details": "mean particle size of peptide-DNA polyplex, 0.5 nmol of peptide per μg of DNA", "description": "Particle size and zeta potential were determined by preparing 2 ml of polyplex in 5 mM Hepes pH 7.5 at a DNA concentration of 30 μg/ml with 15 nmols/ml of peptide (0.5 nmol of peptide per μg of DNA). Particle size was measured by quasi-elastic light scattering (QELS) at a scatter angle of 90° on a Brookhaven ZetaPlus particle sizer (Brookhaven Instruments Corporation, NY). The zeta potential was determined as the mean of ten measurements immediately following acquisition of the particle size."}, "[7]": {"tested_on": "Erythrocytes", "assay": "RBC hemolysis assay", "assay_type": "cell-based, mice", "description": "Whole blood was obtained from male ICR mice by heart puncture with heparinized 22 G needles and collected in conical tubes containing 10 ml of 0.15 M PBS (pH 7.4) prewarmed to 37° C. Erythrocytes were immediately separated from plasma by centrifugation at 2000 rpm for 2 min, washed three times with 10 ml of PBS, and then diluted to 1.5×10^8 cells/ml. Peptides were prepared at 15 μM and serially diluted to 10-0.01 μM, after which 100 μl was pipetted in triplicate into a MultiScreenHTS BV 96 well plate. Erythrocytes (50 μl, 7.5×10^6 cells) were added to the peptides and incubated at 37° C. for 1 h followed by filtration on a Multiscreen vacuum manifold (Millipore Corporation, Billerica, Mass.). The filtrate was measured for Abs410nm on a Biotech plate reader (Biotech Instruments Incorporated., Winooski, Vt.) and compared to the 100% hemolysis caused by replacing PBS with water. Peptide DNA polyplexes (1.5 nmols and 7.5 μg pGL3) were also assayed for hemolysis as described above."}, "[8]": {"tested_on": "pGL3", "assay": "Man 9 glycopeptide DNA band shift assay", "assay_type": "binding", "details": "agarose gel", "description": "pGL3 (1 μg) was combined with 0.05, 0.2, 0.5, and 1 nmol of Man 9 glycopeptide. Each sample was incubated for 30 min before loading onto an agarose gel, that was electrophoresed at 80 V for 60 min (Adami, R. C., Collard, W. T., Gupta, S. A., Kwok, K. Y., Bonadio, J., and Rice, K. G. (1998) Stability of Peptide-Condensed Plasmid DNA Formulations. Journal of Pharmaceutical Sciences 87, 678-683). The gel was stained with 0.1 mg per ml of ethidium bromide at 4° C. for 24 hrs, then photographed while illuminating on a transilluminator."}, "[9]": {"tested_on": "pGL3", "assay": "thiazole orange displacement assay of Man 9 glycopeptide", "assay_type": "binding", "details": "pGL3 1 μg, 40 nM thiazole orange", "description": "A control sample of pGL3 (1 μg) was combined with 40 nM thiazole orange in a total volume of 500 μl of 5 mM Hepes buffer pH 7.4. The Man 9 glycopeptide (0.2, 0.3, 0.4, 1 and 2 nmol) or Cys-(Acr-Lys)4 peptide (SEQ ID NO: 23) was added to pGL3 (1 μg) samples containing thiazole orange, and incubated for 30 min, followed by measuring the fluorescence intensity at excitation 500 nm and emission 530 nm (Wadhwa, M. S., Collard, W. T., Adami, R. C., McKenzie, D. L., and Rice, K. G. (1997) Peptide-mediated gene delivery: influence of peptide structure on gene expression. Bioconjugate Chemistry 8, 81-8). The percent fluorescence intensity relative to control was plotted versus the stoichiometry of glycopeptide or peptide added to DNA to determine the equivalence point."}, "[10]": {"tested_on": "DC-SIGN (+) and (−) CHO cells", "assay": "Cy5-DNA glycopeptide polyplex uptake by FACS", "assay_type": "cell-based, human", "details": "24 hr 37° C.", "description": "pGL3 plasmid (5 μg) was labeled with Label IT according to the manufacturer's instructions to prepare Cy5-DNA. The Man 9 glycopeptide (0.5 nmol) was combined with 1 μg Cy5-DNA in 60 μl of water and incubated for 30 min to form a polyplex. DC-SIGN (+) and (−) CHO cells (1×10^6) (Granelli-Pipemo, A., Pritsker, A., Pack, M., Shimeliovich, I., Arrighi, J. F., Park, C. G., Trumpfheller, C., Piguet, V., Moran, T. M., and Steinman, R. M. (2005) Dendritic Cell Specific Intercellular Adhesion Molecule 3-Grabbing Nonintegrin/CD209 Is Abundant on Macrophages in the Normal Human Lymph Node and Is Not Required for Dendritic Cell Stimulation of the Mixed Leukocyte Reaction. J Immunology 7, 4260-4273) were each plated in triplicate in 35 mm wells and grown in DMEM supplemented with 7% FBS and 1% nonessential amino acids for 24 hrs. CHO (+) and (−) cells were transfected for 24 hrs with 1 μg of Cy5-DNA polyplex. The CHO cells were lifted by treatment with 5 ml of 1 mM EDTA in PBS and concentrated by centrifugation by 2,000×g, before diluting to a final volume of 1 ml in PBS. The transfected CHO (+) and (−) cells were analyzed by FACS on a Becton Dickson LSRII with excitation 488 nm and emission 575 nm, and compared to untransfected CHO cells."}},
  "note": "Where “and” joins values, the source holds several entries; their conditions need not be identical. Equal entries are not always repeated. Where two headings read alike, the source gives them in different places. No end group written: not given here. Acr = acridine on the lysine ε-amine",
  "data": [
    {"compound": "CKacrKKacrC: cysteine-flanked acridinylated peptide, Kacr = lysine modified with acridine at the ε-amine; SEQ ID NO: 103 (CK(Acr)KK(Acr)C; cysteine pairing not given here)", "values": [
      {"measurement": "affinity for DNA", "setting": "[1]", "value": "higher affinity for DNA"}
    ]},
    {"compound": "CKacrRKacrC: cysteine-flanked acridinylated peptide, SEQ ID NO: 104 (CK(Acr)RK(Acr)C; cysteine pairing not given here)", "values": [
      {"measurement": "affinity for DNA", "setting": "[1]", "value": "higher affinity for DNA"}
    ]},
    {"compound": "Man 9 glycopeptide (Man9GlcNAc2-Asn-Tyr-propionate maleimide conjugated to Cys-(Acr-Lys)4)", "values": [
      {"measurement": "in vitro gene transfer (luciferase expression) in CHO (+) versus CHO (-) cells", "setting": "[2]", "value": 100, "unit": "fold"},
      {"measurement": "fold fluorescence intensity (cell uptake), CHO (+) over CHO (-) cells", "setting": "[3]", "value": "10 to 50", "unit": "fold"},
      {"measurement": "fold fluorescence intensity, CHO (+) over CHO (-) cells", "setting": "[4]", "value": 10, "unit": "fold"}
    ]},
    {"compound": "CC[C@H](C)[C@H](NC(=O)CNC(=O)[C@H](CCCCN)NC(=O)[C@H](CCCCN)NC(=O)[C@H](Cc1c[nH]c2ccccc12)NC(=O)[C@@H](N)CSSC[C@H](NC(=O)[C@H](CCCNC(=N)N)NC(=O)[C@H](CCCCNC(C)=O)NC(=O)[C@H](CCCNC(=N)N)NC(=O)[C@H](CCCCNC(C)=O)NC(=O)[C@H](CCCNC(=N)N)NC(=O)[C@H](CCCCNC(C)=O)NC(=O)[C@H](CCCNC(=N)N)NC(=O)[C@H](CCCCNC(C)=O)NC(=O)[C@@H](N)Cc1c[nH]c2ccccc12)C(=O)O)C(=O)NCC(=O)N[C@@H](C)C(=O)N[C@H](C(=O)N[C@@H](CC(C)C)C(=O)N[C@@H](CCCCN)C(=O)N[C@H](C(=O)N[C@@H](CC(C)C)C(=O)N[C@H](C(=O)N[C@H](C(=O)NCC(=O)N[C@@H](CC(C)C)C(=O)N1CCC[C@H]1C(=O)N[C@@H](C)C(=O)N[C@@H](CC(C)C)C(=O)N[C@H](C(=O)N[C@@H](CO)C(=O)N[C@@H](CC(C)C)C(=O)N[C@H](C(=O)N[C@@H](CCCCN)C(=O)N[C@@H](CCCNC(=N)N)C(=O)N[C@@H](CCCCN)C(=O)N[C@@H](CCCNC(=N)N)C(=O)N[C@@H](CCC(N)=O)C(=O)N[C@@H](CCC(N)=O)C(=O)O)[C@@H](C)CC)[C@@H](C)CC)[C@@H](C)O)[C@@H](C)O)C(C)C)C(C)C", "note": "[poly(Lys(Ac)-Arg)4-SS-melittin]", "values": [
      {"measurement": "gene transfer, fold less active than poly(Acr-Arg)4-SS-melittin", "setting": "[5]", "value": "100-1000 fold"},
      {"measurement": "Particle Size (nm)", "setting": "[6]", "value": 177, "unit": "nm"},
      {"measurement": "EC50", "setting": "[7]; RBC hemolysis at pH 5.0, second value of the cell (pH 7.4:5.0), read-out: HL50 (μM) pH 5.0", "value": 7.7, "unit": "µM"},
      {"measurement": "EC50", "setting": "[7]; RBC hemolysis at pH 7.4, first value of the cell (pH 7.4:5.0), read-out: HL50 (μM) pH 7.4", "value": 5.6, "unit": "µM"}
    ]},
    {"compound": "poly-CKacrKKacrC: disulfide polymer of CKacrKKacrC formed by buffered incubation at pH 8.0 (CK(Acr)KK(Acr)C; also: disulfide polymer formed at pH 8.0)", "values": [
      {"measurement": "affinity for DNA", "setting": "[1]", "value": "greater affinity of the polymer for DNA than the monomer"}
    ]},
    {"compound": "Man 9 glycopeptide: high mannose N-glycan Man 9 Mal (Tyr, propionate maleimide) conjugated to Cys-(Acr-Lys)4", "values": [
      {"measurement": "stoichiometry at which the band shift was complete", "setting": "[8]", "value": "≥ 0.4 nmol of glycopeptide per μg of DNA"},
      {"measurement": "thiazole orange displacement, asymptote / equivalence point for polyplex formation", "setting": "[9]", "value": "0.4 nmol per μg of DNA"},
      {"measurement": "cell uptake (fluorescence intensity), CHO (+) over CHO (−) cells", "setting": "[10]", "value": "10-50 fold and ~10 fold"}
    ]}
  ]
}
